PubChem BioAssay (NCI)
Values joined by “and” are separate entries in the source; they are usually repeats but may differ in a detail not shown here. Identical values can stand only once.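 Method: 48-hour compound exposure of cells in 96-well plates, five concentrations, linear interpolation of endpoints. Here, GI50 denotes the concentration required for 50% inhibition of growth. At the TGI there is no net growth.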

Columns and labels:
Assay in all cases: NCI anticancer screen, dose series, 48 h
[1] = test system: NCI-H460 lung
[2] = test system: OVCAR-4 ovarian
[3] = test system: HT29 colon
[4] = test system: MDA-MB-435
[5] = test system: RPMI-8226 leukemia
[6] = test system: ACHN renal
[7] = test system: T-47D breast
[8] = test system: NCI-H23 lung
[9] = test system: NCI-H522 lung
[10] = test system: PC-3 prostate

| Compound | GI50 [1] [µM] | TGI [1] [µM] | GI50 [2] | TGI [2] [µM] | GI50 [3] [µM] | TGI [3] [µM] | GI50 [4] [µM] | TGI [4] [µM] | GI50 [5] | TGI [5] [µM] | GI50 [6] [µM] | TGI [6] [µM] | GI50 [7] [µM] | TGI [7] [µM] | GI50 [8] [µM] | TGI [8] [µM] | TGI [9] [µM] | GI50 [10] [µM] | TGI [10] [µM] | GI50 [9] [µM] |
| --- | --- | --- | --- | --- | --- | --- | --- | --- | --- | --- | --- | --- | --- | --- | --- | --- | --- | --- | --- | --- |
| O=c1oc2cc(OS(=O)(=O)c3ccc(F)cc3)ccc2c2c1CCCCC2 | > 100 | > 100 | 5.76 µM | > 100 | 1.04 | > 100 | > 100 | > 100 | 3.7 µM | > 100 | > 100 | > 100 | 1.86 | > 100 | > 100 | > 100 |  |  |  |  |
| Cc1cc2c(c(C#N)c1C)NC(=O)CCC2=O |  | > 100 |  | > 100 |  | > 100 |  |  |  | > 100 |  | > 100 |  |  |  | > 100 |  |  |  |  |
| O=C(O)CSc1n[nH]c(-c2ccc(O)cc2)n1 |  | > 100 |  | > 100 |  | > 100 |  |  |  | > 100 |  | > 100 |  |  |  | > 100 | > 100 |  |  |  |
| N=C1C(c2nc(-c3ccc(Br)cc3)cs2)=C(O)CN1Cc1cccnc1 | 12.3 | > 100 | 25.1 µM | > 100 | 13.4 | > 100 | 15.5 | > 100 | 2.88 µM | 76.5 | 16.4 | 98.8 | 4.89 | 56.1 | 22.5 | > 100 |  | 44.3 | > 100 |  |
| Nn1c(-c2ccccc2)nc2ccc(Br)cc2c1=O |  | > 100 |  | 86.7 |  | > 100 |  |  |  | > 100 |  | > 100 |  |  |  | > 100 | > 100 |  |  |  |
| Cc1cc(C)nc(NS(=O)(=O)c2ccc(Nc3c4ccccc4nc4c(C(=O)Nc5ccc(S(=O)(=O)N=C(N)N)cc5)ccc(Cl)c34)cc2)n1 |  | > 100 |  | 75.4 |  | > 100 |  |  |  | 80.1 |  | > 100 |  |  |  | 43.7 | 29.4 |  |  |  |
| Cn1c2c(c3ccccc31)CCN(CCCCN1CCc3c(n(C)c4ccccc34)C1=O)C2 |  | > 100 |  | > 100 |  | > 100 |  |  |  | > 100 |  | > 100 |  |  |  | > 100 | > 100 |  |  |  |
| O=C1CC(O)C=C1Nc1ccc(Cl)cc1 (stereo not given) |  | > 100 |  | > 100 |  | > 100 |  |  |  |  |  | > 100 |  |  |  | > 100 | 48.4 |  |  |  |
| C=C1C(=O)O[C@H]2[C@H]1CC/C(COC(=O)c1cc3cc(F)ccc3[nH]1)=C\CC[C@@]1(C)O[C@@H]21 | 3.04 | 11.5 | 1.67 µM | 3.92 | 1.13 | 3.14 | 1.5 | 2.96 | 2 µM | 7.09 | 1.46 | 2.94 |  |  | 1.9 | 4.26 | 3.38 | 1.7 | 3.44 | 1.66 |
| Cc1nc2c(nc1C)C(=O)c1cc(O)ccc1C2=O |  | > 100 |  | > 100 |  | > 87.2 |  |  |  | > 79.7 |  | > 100 |  |  |  | > 100 | > 100 |  |  |  |
| O=C(Nc1ccc(N2CCNCC2)cc1)c1[nH]ncc1Nc1ncnc2sc3c(c12)CCC3 | 0.0845 | 0.978 | 0.321 µM | 2.26 |  |  | 0.199 | 1.77 | 0.67 µM | 3.58 | 0.181 | 1.16 | 0.852 | 3.53 | 0.268 | 1.85 |  | 0.179 | 1.49 |  |
| O=C(c1ccccc1)C(C(=O)c1ccccc1)C1(O)C(=O)c2ccccc2C1=O |  |  |  |  |  | > 100 |  |  |  | > 100 |  | > 100 |  |  |  | 84.6 | 42.2 |  |  |  |
| Cn1c(=O)nc2n(-c3ccc(Cl)cc3)c3ccc(Cl)cc3nc-2c1=O |  | 33.7 |  |  |  | 59.2 |  |  |  |  |  |  |  |  |  | 8.65 | 21.3 |  |  |  |
| N#CCC(=O)Nc1cccc(C(F)(F)F)c1 |  | > 100 |  | > 100 |  | > 100 |  |  |  |  |  | > 100 |  |  |  | > 100 | > 100 |  |  |  |
| N#Cc1cn(C2OC(CO)C(O)C2O)c2ncnc(N)c12 (stereo not given) | < 0.0141 |  | 0.0282 µM and 0.0117 µM |  | < 0.01 |  |  |  | 0.0303 µM and 0.045 µM and < 0.01 µM |  | < 0.01 | 0.02 |  |  | 0.0256 |  |  |  |  | 0.0293 |
| COc1cc(CCc2ccc(OCCN(C)C)cc2)cc(OC)c1OC |  | > 100 |  | > 100 |  | > 100 |  |  |  | > 100 |  | > 100 |  |  |  |  | > 100 |  |  |  |
| Nc1ccn(CCOC(=O)c2ccccc2)c(=O)n1 |  | > 100 |  | > 100 |  | > 100 |  |  |  | > 100 |  | > 100 |  |  |  |  | > 100 |  |  |  |
| C=C1C(=O)O[C@H]2[C@H]1CC/C(Cn1cc(CNC(=O)Cc3cn(C(=O)c4ccc(Cl)cc4)c4ccc(OC)cc34)nn1)=C\CC[C@@]1(C)O[C@@H]21 | 3.86 | 13.2 | 1.44 µM | 3.02 | 1.67 | 3.5 | 1.71 | 3.45 | 1.59 µM | 5.21 | 1.92 | 3.71 | 1.73 | 5.05 | 2.58 | 6.7 |  | 1.89 | 3.71 |  |
| COc1ccc(Cl)cc1Nc1nc(C(F)(F)F)ccc1C(=O)N/N=C/c1c(Cl)cccc1Cl | 4.52 | > 100 | 5.16 µM | > 100 | > 100 | > 100 | > 100 | > 100 |  |  | 8.01 | > 100 | 4.41 | > 100 | 38.5 | > 100 | > 100 |  |  | 13.3 |
| CCOC(=O)[C@@]1(C)C=C2O[C@@H]3OC4(CCCCC4)O[C@@H]3C2=C2C(O)=CC=C(O)[C@]21C(=O)OC |  | > 68 |  | > 68 |  | > 68 |  |  |  | > 68 |  | > 68 |  |  |  | > 68 | > 68 |  |  |  |
| O=C(c1ccccc1)C(c1ccccc1)C1(O)C(=O)Nc2c(Cl)cc(Cl)cc21 (stereo not given) |  | > 100 |  | 28 |  | 58 |  |  |  | 38.8 |  | 33.1 |  |  |  | 35.5 | 34.1 |  |  |  |
| CCOC(=O)C(=O)Nc1nc2c(s1)C(=O)c1ccccc1C2=O |  | 45.8 |  | 31.5 |  | 27.4 |  |  |  | 48.2 |  | 28.1 |  |  |  | 27.6 | 29.3 |  |  |  |
